US10383819B1, “Method to effect biphasic bioavailability of oral euphoric psychogenic cannabinoids” (Callitas Therapeutics, Inc., priority 2018, dated 2019)

Experiments:
Respiratory depression = details: in vivo
Protocol: The biphasic THC bioavailability, rapid oral absorption of THC, and the delayed, subsequent conversion of THC into 11-OH THC, provide both an immediate euphoric state and an extended euphoric state, 12-18 hours, that could provide a safe drug alternative to opioids. Opioids cause respiratory depression and overdose deaths from respiratory depression relative to opioid dose. This is the rationale of the second reference, and the reason that Massachusetts prioritized recreational cannabis dispensary licenses to areas of high opioid overdose deaths.

[1] = cited from earlier work
[2] = cited from earlier work; remark: listed apart in the source
[3] = Menthol/1-arginine enhanced oral mucous membrane absorption of THC and euphoric effect
Protocol: FIG. 1 of Human Cannabinoid Pharmacokinetics, by Marilyn A. Huestis, (www.pubmed.gov/17712819) published as Chem Biodivers. 2007 August: 4(8): 1770-1804. […] This is with 8 inhalations over 10 minutes, in 6 patients. […] The method entails maintaining the menthol/1-arginine/THC coated edible THC in the oral cavity for about 10 minutes before chewing the edible.

[4] = menthol/1-arginine enhanced, oral cavity

Compound	respiratory depression (Respiratory depression)	maximum effect (plasma concentration) ([1]; 6 hours after ingestion)	area under the curve (AUC) of plasma concentration relative to THC ([1]; after ingestion of THC)	duration of plasma concentration ([1]; after ingestion of THC)	plasma concentration at peak effect relative to the peak THC plasma concentration ([1]; after ingestion of THC)	time after ingestion up to which an effect is produced ([1]; after ingestion of THC)	time of maximum effect after ingestion ([1]; after ingestion of THC)	metabolism of inhaled or smoked THC into 11-OH THC ([2]; inhaled or smoked)	rise of plasma THC ([2]; smoking 3.55% THC cannabis, 8 inhalations over 10 minutes, 6 patients, from 0 in 10 minutes)	oral mucous membrane absorption of THC relative to the efficacy of smoked/inhaled THC [3, 4]	window in which oral mucous membrane absorption occurs [3, 4]	duration of euphoric effect ([3]; orally absorbed THC, depending upon THC dosage)
CCCCCc1cc(O)c2c(c1)OC(C)(C)[C@@H]1CCC(CO)=C[C@@H]21 [11-OH THC, 11-hydroxy tetrahydrocannabinol]	do not cause respiratory depression	110 micrograms/ml	triple	over 24 hours	double	up to 15 hours	6 h	–	–	–	–	–
CCCCCc1cc(O)c2c(c1)OC(C)(C)[C@@H]1CCC(C)=C[C@@H]21 [THC, delta-9 tetrahydrocannabinol]	do not cause respiratory depression	–	–	12 h	–	–	–	not metabolized into 11-OH THC	150 micrograms/ml	about 70%	10 to 15 min	4 to 8 h
Cannabis	do not cause respiratory depression	–	–	–	–	–	–	–	–	–	–	–
